Our source for the TGI and GI50 values is PubChem BioAssay (NCI).

Holding throughout (experiment): NCI tumour cell line growth inhibition, 48 h
Assay [1] deals with HS 578T breast.
Assay [2] has as its system DU-145 prostate.
For assay [3], the system named is MDA-N.
Assay [4] concerns EKVX NSCLC.
Assay [5] concerns 786-0 renal.
Assay [6] relates to T-47D breast.
For assay [7], the system named is RXF 393 renal.
Assay [8] has as its system SF-539 CNS.
Assay [9] has as its system BT-549 breast.
The subject of assay [10] is DMS 273 small cell lung.
For assay [11], the system named is DMS 114 small cell lung.
The test system of assay [12] is DLD-1 colon.
Assay [13] deals with KM20L2 colon.

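Assay format: 96-well plates, 48-hour exposure. GI50 marks 50% less growth. TGI: total growth inhibition.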

With `COc1ccc(/C=C/c2cc(O)cc(OC3OC(CO)C(O)C(O)C3O)c2)cc1O` (stereo unspecified), the TGI in [1], in [2], in assay [3], in assay [4], in [5] and in assay [6] was > 100 µM throughout. Moreover, the TGI in [7], in assay [8] and in assay [9] was > 100 µM throughout.

As to `Nc1ccc(C2(c3ccc(N)cc3)C3CC4CC(C3)CC2C4)cc1`, the TGI in [3] came out at 37.6 µM; in assay [4] it was 32 µM; in assay [6], 42.8 µM; in assay [7], 17.8 µM; in [9], 25.2 µM.

As for `O=C(N[C@H](CO)[C@H](O)c1ccc([N+](=O)[O-])cc1)C(Cl)Cl`, the TGI in assay [2], in assay [3], in assay [10], in [4], in assay [5] and in assay [11] was > 100 µM each time. Moreover, the TGI in [7], in assay [8], in [9], in assay [12] and in [13] was > 100 µM each time.

On to `OCC1NC(CO)C(O)C1O` (stereo unspecified), for which the TGI in [1], in [2], in [3], in assay [6], in [7] and in assay [9] was > 100 µM throughout.

For `COc1ncnc2c(Cl)c(C(O)c3ccccc3)c(Cl)cc12` (stereo unspecified), the TGI was 49.9 µM in [1]; > 100 µM in assay [2]; 18.7 µM in [3]; > 100 µM in assay [4]; > 100 µM in assay [6]; 35.5 µM in assay [7]. Moreover, the figures for the TGI in [8] and in assay [9] were 50.2 µM and 66.1 µM, respectively.

As to `CCOP(=O)(OCC)C(Cc1c[nH]c2ccccc12)C(=O)O` (stereo unspecified), the TGI in assay [1], in assay [2], in assay [3] and in [6] was > 100 µM each time.

Consider `O=S1(=O)C[C@H](NCc2ccccc2)[C@H](NCc2ccccc2)C1`, for which the TGI in [1] is > 100 µM; in assay [2], > 100 µM; in [3], > 100 µM; in assay [4], > 100 µM; in assay [6] it was 86.4 µM; in [7], > 100 µM. For the same compound, the TGI in assay [8] and in assay [9] was > 100 µM in each case.

Take `O=Nn1c2ccccc2c2ccccc21`: the TGI in assay [1], in assay [2], in assay [4], in assay [5], in [6] and in [7] was > 100 µM each time. Further, the TGI in assay [8] and in assay [9] was > 100 µM throughout.

In the case of `CC(C)N(CCNc1nc(C(Cl)(Cl)Cl)nc2cc(Cl)ccc12)C(C)C`, the GI50 was 1560 nM in assay [1]; 1610 nM in [2]; 1570 nM in assay [4]; 2240 nM in [6]; 1410 nM in assay [7]; 1820 nM in assay [8]. The TGI was 3.99 µM in assay [1]; 3.76 µM in assay [2]; 4.32 µM in assay [4]; 5.08 µM in assay [6]; 2.78 µM in assay [7]; 3.38 µM in assay [8].

As to `CCOC(=O)CCCc1cc(=O)c2c(C)c3[nH]c4ccc(Cl)cc4c3c(C)c2[nH]1`, the TGI in assay [2] is 57.2 µM; in assay [3] it was > 100 µM; in assay [4], > 100 µM; in [5], 38.2 µM; in assay [7] it was 27.1 µM; in assay [8], 31.6 µM. In addition, the TGI in [9] was found to be 41.8 µM.

Consider `Fc1ccc(C2CC(c3cccc(Nc4ccncc4)c3)=NN2c2ccccc2)cc1` (stereo unspecified), for which the GI50 in assay [1] was 1810 nM; in assay [2], 1980 nM; in assay [4], 1990 nM; in [6], 2040 nM; in assay [8], 1650 nM; in [9], 1680 nM. Also, the TGI in assay [1] amounted to 3.8 µM; in assay [2] it was 3.91 µM; in assay [4], 5.71 µM; in assay [6] it was 4.62 µM; in assay [8] it was 3.06 µM; in [9], 3.46 µM.

With `CC=C/C=C/[C@@H]1O[C@](O)([C@H](CC)C(=O)NC/C=C/C=C(\C)[C@@H](OC)[C@@H](C)[C@@H]2O[C@H](/C=C/C=C/C=C(\C)C(=O)c3c(O)cc[nH]c3=O)[C@H](O)[C@@H]2O)[C@H](O)[C@H](O)C1(C)C`, the TGI in assay [1], in assay [4] and in [8] was > 100 µM each time.

With `O=C(Nc1ccc(C(F)(F)F)cc1[N+](=O)[O-])C(=O)Nn1c(=S)[nH]c2ccccc2c1=O`, the TGI in assay [10], in [4], in [11], in assay [7], in [8] and in assay [12] was > 100 µM each time. In addition, in assay [13], the TGI is > 100 µM.

For `Cc1ccc(S(=O)(=O)NCCCSCCN)cc1`, the TGI in assay [1], in assay [2], in assay [3], in [6] and in assay [7] was > 100 µM each time.

Regarding `Nc1nc(N)c(N=Nc2ccccc2)c(=O)[nH]1`, the TGI in [10] was > 100 µM; in assay [5] it was > 100 µM; in assay [11], 71.2 µM; in assay [8] it was > 100 µM; in assay [12], > 100 µM; in assay [13], > 100 µM.
